Assay results from US9440969B2, “Compounds and methods for kinase modulation, and indications therefor” (PLEXXIKON INC., priority 2009, dated 2016).

Columns and labels:
[1] = molecular target: B-Raf (Homo sapiens, UniProt P15056); test: B-Raf kinase activity assay (AlphaScreen, biotin-MEK1 substrate); conditions: 100 μM ATP, 100 nM biotin-MEK1, 45 minutes at room temperature; read-out: Biochemical activity (IC50 μM) B-Raf
Method in brief: (§1)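 Each Raf enzyme (0.1 ng) phosphorylates 100 nM biotin-MEK1 in pH 7.0 HEPES with Mg2+/Mn2+, 100 μM ATP final, 45 min at room temperature. Phospho-MEK1/2 antibody with AlphaScreen beads is read after 3 h. IC50 comes from an 8-point dilution series.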

[2] = molecular target: B-Raf V600E (Homo sapiens, UniProt P15056, V600E); test: B-Raf V600E kinase activity assay (AlphaScreen, biotin-MEK1 substrate); conditions: 100 μM ATP, 100 nM biotin-MEK1, 45 minutes at room temperature, read-out: Biochemical activity (IC50 μM) V600E
Method in brief: as §1

[3] = molecular target: c-Raf-1 (Homo sapiens, UniProt P04049); test: c-Raf-1 kinase activity assay (AlphaScreen, biotin-MEK1 substrate); conditions: 100 μM ATP, 100 nM biotin-MEK1, 45 minutes at room temperature; read-out: Biochemical activity (IC50 μM) c-Raf-1
Method in brief: as §1

[4] = test system: COLO205 colon adenocarcinoma (B-Raf V600E mutation); test: COLO205 cell growth inhibition (ATPlite luminescence); format: cell-based; conditions: Homo sapiens, COLO 205, 72 h, COLO205 cells, incubated 3 days with compound
Method: Compounds are assessed in a variety of cell based assays. For example human cell lines with B-Raf V600E mutation (A375 melanoma, SKMEL3 melanoma, and COLO205 colon adenocarcinoma), as well as tumorigenic cell lines with wild-type B-RAF (SW620 colon adenocarcinoma) or with Ras mutations (SKMEL2 melanoma and IPC298 melanoma). Similar assays may be used to assess additional tumorigenic cell lines with Ras mutations, including, but not limited to, M202, M207, M243, M244, M296, S117, HCT116, HCT15, DLD1, MiaPaCa, A549, NCI-H23, NCI-H460, HOP62, MDA-MB231, Hs-578T, HL60, MOLT-4, and CCRF-CEM.
On day 1, cells are counted, then centrifuged in a conical tube for 5 minutes at 1000 rpm. The supernatant is removed and cells are re-suspended as follows: • SW620 (ATCC catalog #CCL-27): resuspend in Leibovitz's L-15 medium, 2 mM L-glutamine, 10% fetal bovine serum to 6×10^4 cells/mL. • A375 (ATCC catalog #CRL-1619): resuspend in Dulbecco's modified Eagle's medium, 4 mM L-glutamine, 4.5 g/L D-glucose, 10% fetal bovine serum to 6×10^4 cells/mL. • COLO205 (ATCC catalog #CCL-222): resuspend in RPMI 1640, 2 mM L-glutamine, 1.5 g/L sodium bicarbonate, 4.5 g/L D-glucose, 10 mM HEPES, 1.0 mM sodium pyruvate, 10% fetal bovine serum to 6×10^4 cells/mL. • SKMEL2 (ATCC catalog #HTB-68): resuspend in Minimum Eagle essential medium, 2 mM L-glutamine, 1.5 g/L sodium bicarbonate, 0.1 mM non-essential amino acids, 1.0 mM sodium pyruvate, 10% fetal bovine serum to 6×10^4 cells/mL. • SKMEL3 (ATCC catalog #HTB-69): resuspend in McCoy's 5A medium, 1.5 mM L-glutamine, 15% fetal bovine serum to 6×10^4 cells/mL. • IPC298 (DSMZ catalog #ACC 251): resuspend in RPMI 1640, 2 mM L-glutamine, 10% fetal bovine serum to 6×10^4 cells/mL.
The cells are plated, 50 μL in each well of a 96-well dish (Corning 3610) and incubated at 37° C. in 5% CO2 overnight, cells plated to a final concentration of cells as follows:
On day 2, compound at a maximum concentration of 5 mM is serially diluted 1:3 (e.g. 10 μL with 30 μL dimethyl sulfoxide) for a total of 8 point titration with DMSO as a control. A 1 μL aliquot of each dilution point and control is added to 249 μL growth media and 50 μL is added to a well containing cells, providing 10 μM compound at the maximum concentration point. The cells are incubated for 3 days at 37° C. in 5% CO2.
On day 5, ATPlite 1 step Luminescence Assay System (Perkin Elmer #6016739) is brought to room temperature along with the cell cultures. ATPlite is added 25 μL to each well, shake for 2 minutes, and the cells are incubated at room temperature for 10 minutes, then luminescence is read on Safire reader. The measured luminescence correlates directly with cell number, such that the reading as a function of compound concentration is used to determine the IC50 value.
It is understood that the results of these assays may vary as assay conditions are varied. Inhibition levels determined under the conditions described herein represent a relative activity for the compounds tested under the specific conditions employed. The cell based assays are likely to show variability due to the complexity of the system and the sensitivity thereof to any changes in the assay conditions. […] Results for compounds that are tested and show substantially no inhibition below the highest tested concentration are represented as “-” in the tables below. In some instances, the compounds were not tested in all of the assays, or assay results were not valid, as indicated by NA in the tables below.

B-Raf, sequence (P15056 whole entry): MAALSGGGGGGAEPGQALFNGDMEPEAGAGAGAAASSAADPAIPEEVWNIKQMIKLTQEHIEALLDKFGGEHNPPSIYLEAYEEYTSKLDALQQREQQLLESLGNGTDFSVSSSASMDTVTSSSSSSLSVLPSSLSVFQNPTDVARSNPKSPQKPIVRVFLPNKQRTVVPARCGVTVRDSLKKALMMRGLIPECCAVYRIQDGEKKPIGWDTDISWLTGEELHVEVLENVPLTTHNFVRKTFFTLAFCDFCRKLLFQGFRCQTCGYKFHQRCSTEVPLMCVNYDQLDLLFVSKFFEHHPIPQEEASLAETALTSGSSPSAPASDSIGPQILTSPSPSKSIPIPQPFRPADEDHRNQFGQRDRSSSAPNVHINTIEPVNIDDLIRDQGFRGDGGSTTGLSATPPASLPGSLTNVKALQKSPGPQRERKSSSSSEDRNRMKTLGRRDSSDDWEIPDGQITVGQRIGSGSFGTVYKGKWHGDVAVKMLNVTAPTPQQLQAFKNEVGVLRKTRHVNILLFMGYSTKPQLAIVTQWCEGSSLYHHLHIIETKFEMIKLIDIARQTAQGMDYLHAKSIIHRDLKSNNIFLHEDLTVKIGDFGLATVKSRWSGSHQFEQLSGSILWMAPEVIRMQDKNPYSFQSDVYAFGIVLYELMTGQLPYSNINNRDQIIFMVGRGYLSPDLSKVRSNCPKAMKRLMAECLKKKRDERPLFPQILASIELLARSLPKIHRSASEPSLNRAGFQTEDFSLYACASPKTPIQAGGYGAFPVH
c-Raf-1, sequence (P04049 whole entry Y340D/Y341D, form open): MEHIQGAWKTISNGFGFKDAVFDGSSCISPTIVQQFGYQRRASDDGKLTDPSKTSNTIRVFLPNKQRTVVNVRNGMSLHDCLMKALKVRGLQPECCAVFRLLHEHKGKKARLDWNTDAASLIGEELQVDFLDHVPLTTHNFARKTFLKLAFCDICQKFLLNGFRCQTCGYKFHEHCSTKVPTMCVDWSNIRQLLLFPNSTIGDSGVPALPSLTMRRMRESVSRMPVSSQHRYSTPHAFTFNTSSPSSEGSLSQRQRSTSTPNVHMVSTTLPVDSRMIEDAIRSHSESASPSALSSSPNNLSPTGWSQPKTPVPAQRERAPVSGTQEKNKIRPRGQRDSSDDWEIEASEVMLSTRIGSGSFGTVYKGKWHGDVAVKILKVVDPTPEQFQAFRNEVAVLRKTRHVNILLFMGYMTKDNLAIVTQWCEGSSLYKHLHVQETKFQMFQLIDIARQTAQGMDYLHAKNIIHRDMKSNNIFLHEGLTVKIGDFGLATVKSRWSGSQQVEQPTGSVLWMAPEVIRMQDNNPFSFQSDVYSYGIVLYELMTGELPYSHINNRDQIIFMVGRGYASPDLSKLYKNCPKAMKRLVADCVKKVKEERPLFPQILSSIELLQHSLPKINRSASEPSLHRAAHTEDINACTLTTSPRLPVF
B-Raf V600E, sequence (P15056 whole entry V600E): as the sequence (P15056 whole entry) above, with V600E counted along it

SMILES	IC50 [1]	IC50 [2]	IC50 [3]	IC50 [4]
CCCS(=O)(=O)Nc1ccc(F)c(C(=O)c2c[nH]c3ncc(-c4csc(-n5cnc(C)c5)n4)cc23)c1F [P-1100, Propane-1-sulfonic acid (2,4-difluoro-3-{5-[2-(4-methyl-imidazol-1-yl)-thiazol-4-yl]-1H-pyrrolo[2,3-b]pyridine-3-carbonyl}-phenyl)-amide]	< 0.1 µM	< 0.1 µM	< 0.1 µM	< 1 µM
CCCS(=O)(=O)Nc1ccc(F)c(C(=O)c2c[nH]c3ncc(-c4csc(N(C)C)n4)cc23)c1F [P-1102, Propane-1-sulfonic acid {3-[5-(2-dimethylamino-thiazol-4-yl)-1H-pyrrolo[2,3-b]pyridine-3-carbonyl]-2,4-difluoro-phenyl}-amide]	< 0.1 µM	< 0.1 µM	< 0.1 µM	> 1 µM
CCCS(=O)(=O)Nc1ccc(F)c(C(=O)c2c[nH]c3ncc(-c4csc(-n5cccn5)n4)cc23)c1F [P-1103, Propane-1-sulfonic acid {2,4-difluoro-3-[5-(2-pyrazol-1-yl-thiazol-4-yl)-1H-pyrrolo[2,3-b]pyridine-3-carbonyl]-phenyl}-amide]	< 0.1 µM	< 0.1 µM	< 0.1 µM	> 1 µM
CCCS(=O)(=O)Nc1ccc(F)c(C(=O)c2c[nH]c3ncc(-c4cnc(-n5ccnc5C)s4)cc23)c1F [P-1105, Propane-1-sulfonic acid (2,4-difluoro-3-{5-[2-(2-methyl-imidazol-1-yl)-thiazol-5-yl]-1H-pyrrolo[2,3-b]pyridine-3-carbonyl}-phenyl)-amide]	< 0.1 µM	< 0.1 µM	< 0.1 µM	< 1 µM
CCCS(=O)(=O)Nc1ccc(F)c(C(=O)c2c[nH]c3ncc(-c4ccc(-c5cccnc5)s4)cc23)c1F [P-1200, Propane-1-sulfonic acid {2,4-difluoro-3-[5-(5-pyridin-3-yl-thiophen-2-yl)-1H-pyrrolo[2,3-b]pyridine-3-carbonyl]-phenyl}-amide]	< 0.1 µM	< 0.1 µM	< 0.1 µM	> 1 µM
CCCS(=O)(=O)Nc1ccc(F)c(C(=O)c2c[nH]c3ncc(-c4ccc(S(N)(=O)=O)s4)cc23)c1F [P-1202, 5-{3-[2,6-Difluoro-3-(propane-1-sulfonylamino)-benzoyl]-1H-pyrrolo[2,3-b]pyridin-5-yl}-thiophene-2-sulfonic acid amide]	< 0.1 µM	< 0.1 µM	< 0.1 µM	< 1 µM

The next lines start with the values.

IC50 [1]	IC50 [2]	IC50 [3]	IC50 [4]	SMILES
< 0.1 µM	< 0.1 µM	< 0.1 µM	< 1 µM	CCCS(=O)(=O)Nc1ccc(F)c(C(=O)c2c[nH]c3ncc(-c4cnc(-n5ccnc5)s4)cc23)c1F [P-1104, Propane-1-sulfonic acid {2,4-difluoro-3-[5-(2-imidazol-1-yl-thiazol-5-yl)-1H-pyrrolo[2,3-b]pyridine-3-carbonyl]-phenyl}-amide]
< 0.1 µM	< 0.1 µM	< 0.1 µM	> 1 µM	CCCS(=O)(=O)Nc1ccc(F)c(C(=O)c2c[nH]c3ncc(-c4csc(-n5ccnc5)n4)cc23)c1F [P-1106, Propane-1-sulfonic acid {2,4-difluoro-3-[5-(2-imidazol-1-yl-thiazol-4-yl)-1H-pyrrolo[2,3-b]pyridine-3-carbonyl]-phenyl}-amide]
< 0.1 µM	< 0.1 µM	< 0.1 µM	< 1 µM	CCCS(=O)(=O)Nc1ccc(F)c(C(=O)c2c[nH]c3ncc(-c4ccc(-c5cc[nH]n5)s4)cc23)c1F [P-1201, Propane-1-sulfonic acid (2,4-difluoro-3-{5-[5-(1H-pyrazol-3-yl)-thiophen-2-yl]-1H-pyrrolo[2,3-b]pyridine-3-carbonyl}-phenyl)-amide]
< 0.1 µM	< 0.1 µM	< 0.1 µM	> 1 µM	CCCS(=O)(=O)Nc1ccc(F)c(C(=O)c2c[nH]c3ncc(-c4ccc(-c5noc(C)n5)s4)cc23)c1F [P-1203, Propane-1-sulfonic acid (2,4-difluoro-3-{5-[5-(5-methyl-[1,2,4]oxadiazol-3-yl)-thiophen-2-yl]-1H-pyrrolo[2,3-b]pyridine-3-carbonyl}-phenyl)-amide]
